Experimental data as given in the supplement of paper PMC10331698.
± gives the standard deviation of the averaged measurements.

Tests used:
Test in all cases: level (log10 ratio to DMSO vehicle control); higher = higher biomarker level / cell amount than vehicle control
[1] = compound: O=C(O)C(F)(F)C(F)(F)C(F)(F)C(F)(F)C(F)(F)C(F)(F)F [Perfluoroheptanoic acid]; details: in DMSO
Experimental: (§1)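 BioMAP Diversity Plus panel of 12 human primary cell co-culture systems (3C, 4H, LPS, SAg, BT, BF4T, BE3C, CASM3C, HDF3CGF, KF3CT, MyoF, Mphg). Compounds were added 1 h before stimulation and left for 24 h (MyoF 48 h; BT 72 h for soluble read-outs or 6 d for IgG). Biomarkers were read by ELISA, cytotoxicity by SRB, PBMC viability and proliferation by Alamar Blue. Each well value was divided by the mean of 8 DMSO control wells on the same plate and log10 transformed; duplicate blinded samples were tested at 4 concentrations.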

[2] = compound: O=C(O)C(F)(F)C(F)(F)C(F)(F)OC(F)(C(F)(F)F)C(F)(F)F [Perfluoro-4-isopropoxybutanoic acid]; details: in DMSO
Experimental: as §1

[3] = compound: O=C(O)C(F)(F)C(F)(F)F [Perfluoropropanoic acid]; details: in DMSO
Experimental: as §1

[4] = compound: FC(F)C(F)(F)COCC1CO1 [((2,2,3,3-Tetrafluoropropoxy)methyl)oxirane]; details: in DMSO
Experimental: as §1

[5] = compound: NC(=O)C(F)(F)C(F)(F)F [Pentafluoropropionamide]; details: in DMSO
Experimental: as §1

[6] = compound: OCCCC(F)(F)C(F)(F)C(F)(F)C(F)(F)C(F)(F)C(F)(F)C(F)(F)F [7:3 Fluorotelomer alcohol]; details: 6700 nM; in DMSO
Experimental: as §1

[7] = compound: O=C(O)C(F)(F)C(F)(F)C(F)(F)F [Perfluorobutanoic acid]; details: in DMSO
Experimental: as §1

Test System | level (log10) ([1]; 6700 nM) | level (log10) ([1]; 20000 nM) | level (log10) ([1]; 60000 nM) | level (log10) ([2]; 6700 nM) | level (log10) ([2]; 20000 nM) | level (log10) ([2]; 60000 nM) | level (log10) ([3]; 6700 nM) | level (log10) ([3]; 20000 nM) | level (log10) ([3]; 60000 nM) | level (log10) ([4]; 6700 nM) | level (log10) ([4]; 20000 nM) | level (log10) ([4]; 60000 nM) | level (log10) ([5]; 6700 nM) | level (log10) ([5]; 20000 nM) | level (log10) ([5]; 60000 nM) | level (log10) [6] | level (log10) ([7]; 6700 nM) | level (log10) ([7]; 20000 nM) | level (log10) ([7]; 60000 nM)
LPS:CD40 | -0.0135 ± 0.043 | 0.0055 ± 0.00071 | -0.0515 ± 0.079 | 0.012 ± 0.041 | -0.011 ± 0.018 | -0.0405 ± 0.023 | 0.0105 ± 0.043 | -0.0235 ± 0.0035 | 0.011 ± 0.023 | 0.009 | -0.006 ± 0.0057 | -0.012 ± 0.017 | -0.0315 ± 0.047 | -0.04 ± 0.013 | -0.025 ± 0.02 | 0.0345 ± 0.005 | 0.0245 ± 0.061 | 0 ± 0.03 | -0.0095 ± 0.022
LPS:CD62E/E-Selectin | -0.009 ± 0.0028 | 0 ± 0.017 | 0.01 | -0.004 ± 0.013 | -0.013 ± 0.048 | 0.001 ± 0.021 | -0.007 ± 0.0014 | -0.0195 ± 0.023 | -0.0025 ± 0.0078 | 0.012 ± 0.02 | 0.0055 ± 0.033 | 0.0145 ± 0.033 | -0.0265 ± 0.025 | -0.0185 ± 0.028 | -0.004 ± 0.0071 | -0.0125 ± 0.016 | -0.012 ± 0.018 | -0.01 ± 0.013 | -0.0085 ± 0.005
LPS:CD69 | -0.0095 ± 0.0035 | -0.025 | -0.057 ± 0.013 | -0.0005 ± 0.023 | -0.006 ± 0.0042 | -0.0145 ± 0.046 | -0.001 ± 0.023 | 0.0035 ± 0.012 | 0.005 ± 0.027 | 0.0005 ± 0.022 | -0.003 ± 0.0014 | 0.012 ± 0.041 | -0.03 ± 0.0014 | -0.0255 ± 0.016 | -0.01 ± 0.0028 | -0.007 ± 0.0014 | -0.0005 ± 0.081 | 0.0145 ± 0.088 | 0.002 ± 0.075
LPS:CD106/VCAM-1 | -0.014 ± 0.021 | -0.0155 ± 0.025 | -0.013 ± 0.025 | -0.0015 ± 0.016 | -0.0075 ± 0.0078 | -0.0095 ± 0.028 | -0.0105 ± 0.018 | -0.008 ± 0.02 | -0.0055 ± 0.022 | 0.0015 ± 0.036 | -0.024 ± 0.0071 | -0.032 ± 0.042 | -0.041 ± 0.0014 | -0.021 ± 0.0099 | -0.0135 ± 0.018 | -0.031 ± 0.0085 | -0.0095 ± 0.0021 | -0.0075 ± 0.0021 | -0.027 ± 0.033
LPS:CD141/Thrombomodulin | -0.0115 ± 0.03 | 0.002 ± 0.011 | -0.035 ± 0.0099 | 0.0205 ± 0.012 | 0.016 ± 0.013 | 0.0225 ± 0.0035 | -0.003 ± 0.027 | -0.007 ± 0.0057 | 0.013 ± 0.0057 | 0.0055 ± 0.016 | -0.003 ± 0.03 | -0.049 ± 0.013 | -0.0385 ± 0.00071 | -0.005 ± 0.0028 | -0.01 ± 0.0014 | -0.0025 ± 0.013 | -0.0035 ± 0.046 | -0.0295 ± 0.05 | 0.008 ± 0.054
LPS:CD142/Tissue Factor | -0.0025 ± 0.005 | -0.007 ± 0.013 | 0.0245 ± 0.005 | 0.019 ± 0.033 | 0.0165 ± 0.011 | -0.016 ± 0.1 | 0.001 ± 0.0028 | 0.0055 ± 0.028 | 0.0235 ± 0.0078 | 0.013 ± 0.024 | 0.006 ± 0.0057 | -0.019 ± 0.023 | 0.0095 ± 0.015 | -0.022 ± 0.034 | -0.0425 ± 0.046 | -0.0245 ± 0.0064 | 0.0045 ± 0.037 | -0.0205 ± 0.00071 | -0.0045 ± 0.019
LPS:CXCL8/IL-8 | 0.0085 ± 0.033 | 0.027 ± 0.03 | 0.105 ± 0.059 | 0.0515 ± 0.0021 | 0.0935 ± 0.035 | 0.134 ± 0.018 | -0.013 ± 0.02 | -0.001 ± 0.0085 | -0.002 ± 0.0071 | -0.035 ± 0.038 | -0.024 ± 0.031 | 0.004 ± 0.0014 | -0.009 ± 0.013 | -0.0115 ± 0.00071 | 0.0285 ± 0.037 | -0.0305 ± 0.011 | -0.0055 ± 0.005 | -0.0165 ± 0.00071 | 0.0095 ± 0.011
LPS:IL-1alpha | -0.002 ± 0.0057 | -0.0265 ± 0.0078 | 0.006 ± 0.047 | -0.043 ± 0.0071 | -0.0015 ± 0.013 | 0.0205 ± 0.064 | -0.047 ± 0.033 | -0.0405 ± 0.037 | -0.0165 ± 0.032 | -0.046 ± 0.0042 | -0.026 ± 0.021 | 0.022 ± 0.024 | 0.0225 ± 0.036 | -0.0175 ± 0.019 | 0.0255 ± 0.047 | -0.0615 ± 0.013 | -0.0225 ± 0.032 | -0.0305 ± 0.019 | -0.0035 ± 0.016
LPS:M-CSF | -0.028 ± 0.024 | -0.008 ± 0.018 | -0.007 ± 0.038 | 0.001 ± 0.0057 | -0.004 ± 0.023 | 0.016 ± 0.0028 | 0.006 ± 0.0028 | -0.027 ± 0.0014 | -0.0005 ± 0.037 | 0.0075 ± 0.011 | 0.009 ± 0.017 | -0.0155 ± 0.036 | -0.0285 ± 0.039 | -0.0055 ± 0.0064 | 0.023 ± 0.0042 | -0.006 ± 0.025 | 0.004 ± 0.014 | -0.005 ± 0.016 | 0.003 ± 0.03
LPS:SRB | -0.019 ± 0.0085 | 0.001 ± 0.0028 | -0.019 ± 0.0099 | 0.0075 ± 0.015 | 0.018 ± 0.0099 | 0.0215 ± 0.016 | -0.0125 ± 0.00071 | -0.0035 ± 0.013 | -0.0065 ± 0.0064 | -0.0145 ± 0.0035 | -0.005 | -0.0105 ± 0.0092 | 0 ± 0.014 | -0.006 ± 0.0014 | -0.0105 ± 0.00071 | -0.002 | -0.006 ± 0.028 | -0.013 ± 0.0071 | -0.001 ± 0.0099
LPS:sPGE2 | 0.0295 ± 0.005 | -0.0185 ± 0.022 | -0.0285 ± 0.059 | -0.0145 ± 0.043 | -0.0585 ± 0.022 | -0.0615 ± 0.023 | -0.017 ± 0.05 | -0.018 ± 0.0071 | -0.011 ± 0.04 | -0.0355 ± 0.032 | -0.022 ± 0.011 | -0.037 ± 0.014 | 0.032 ± 0.0085 | -0.008 ± 0.0071 | -0.018 ± 0.014 | 0.101 ± 0.03 | -0.0045 ± 0.012 | 0.0155 ± 0.025 | -0.0075 ± 0.0035
LPS:sTNF-alpha | -0.0265 ± 0.054 | -0.049 ± 0.0071 | -0.0215 ± 0.046 | -0.0215 ± 0.15 | -0.012 ± 0.13 | -0.031 ± 0.1 | -0.006 ± 0.013 | 0.0065 ± 0.00071 | 0.0175 ± 0.0021 | 0.0135 ± 0.0021 | 0.015 ± 0.013 | 0.0175 ± 0.0021 | 0.05 ± 0.0014 | 0.0015 ± 0.023 | 0.0095 ± 0.04 | -0.081 ± 0.05 | -0.0195 ± 0.012 | -0.0055 ± 0.0078 | -0.041 ± 0.034
SAg:CCL2/MCP-1 | -0.013 ± 0.0085 | 0.0215 ± 0.011 | 0.0215 ± 0.013 | -0.007 ± 0.021 | 0.006 ± 0.016 | 0.039 ± 0.02 | -0.0055 ± 0.036 | 0.012 ± 0.016 | 0.0145 ± 0.042 | -0.0305 ± 0.046 | -0.0185 ± 0.016 | -0.014 ± 0.011 | -0.012 ± 0.0014 | -0.018 ± 0.0099 | -0.0095 ± 0.016 | 0.003 ± 0.0014 | -0.012 ± 0.0028 | -0.014 | 0.0175 ± 0.025
SAg:CD38 | -0.02 ± 0.0042 | -0.001 ± 0.0057 | -0.0225 ± 0.03 | -0.003 ± 0.014 | -0.0015 ± 0.0035 | -0.017 ± 0.014 | 0.0015 ± 0.043 | 0.023 ± 0.0085 | 0.029 ± 0.055 | -0.007 ± 0.0014 | -0.006 ± 0.011 | 0.002 ± 0.023 | -0.026 ± 0.02 | -0.0125 ± 0.028 | 0.0005 ± 0.0064 | 0.0245 ± 0.07 | -0.005 | -0.013 ± 0.0085 | -0.012 ± 0.0099
SAg:CD40 | -0.015 ± 0.027 | -0.006 ± 0.0028 | -0.021 ± 0.018 | 0.0105 ± 0.023 | 0.0165 ± 0.005 | -0.008 ± 0.018 | -0.045 ± 0.016 | -0.0335 ± 0.044 | -0.009 ± 0.031 | -0.0095 ± 0.018 | -0.009 ± 0.0057 | -0.0015 ± 0.0078 | -0.041 ± 0.0071 | -0.0195 ± 0.015 | -0.0445 ± 0.0021 | -0.031 ± 0.0057 | -0.0055 ± 0.026 | -0.014 ± 0.02 | -0.0015 ± 0.0092
SAg:CD62E/E-Selectin | -0.025 ± 0.0085 | 0.011 | 0.008 ± 0.013 | -0.0025 ± 0.0021 | 0.0125 ± 0.015 | -0.01 ± 0.023 | 0.004 ± 0.013 | -0.0205 ± 0.016 | 0.0425 ± 0.023 | 0.0075 ± 0.018 | -0.002 ± 0.023 | 0.009 ± 0.047 | -0.0215 ± 0.005 | -0.0095 ± 0.026 | -0.0115 ± 0.018 | -0.0005 ± 0.00071 | -0.026 ± 0.0042 | -0.024 ± 0.0057 | -0.024 ± 0.013
